Measurements published in patent US20210070748A1, “INHIBITORS OF BRUTONS TYROSINE KINASE” (Pharmacyclics LLC, priority 2015, published 2021).
Read-outs that look alike come from different tables or passages of the source.

What was measured:
Type in all cases: biochemical
LCK = LCK (Homo sapiens, UniProt P06239); assay: Inhibition of a panel of kinases, in vitro HotSpot kinase assay: LCK; details: read-out: IC50 LCK
ITK = molecular target: T1, ITK (Homo sapiens, UniProt Q08881); assay: Inhibition of a panel of kinases, in vitro HotSpot kinase assay: ITK
T1 sequence (Q08881 1-620): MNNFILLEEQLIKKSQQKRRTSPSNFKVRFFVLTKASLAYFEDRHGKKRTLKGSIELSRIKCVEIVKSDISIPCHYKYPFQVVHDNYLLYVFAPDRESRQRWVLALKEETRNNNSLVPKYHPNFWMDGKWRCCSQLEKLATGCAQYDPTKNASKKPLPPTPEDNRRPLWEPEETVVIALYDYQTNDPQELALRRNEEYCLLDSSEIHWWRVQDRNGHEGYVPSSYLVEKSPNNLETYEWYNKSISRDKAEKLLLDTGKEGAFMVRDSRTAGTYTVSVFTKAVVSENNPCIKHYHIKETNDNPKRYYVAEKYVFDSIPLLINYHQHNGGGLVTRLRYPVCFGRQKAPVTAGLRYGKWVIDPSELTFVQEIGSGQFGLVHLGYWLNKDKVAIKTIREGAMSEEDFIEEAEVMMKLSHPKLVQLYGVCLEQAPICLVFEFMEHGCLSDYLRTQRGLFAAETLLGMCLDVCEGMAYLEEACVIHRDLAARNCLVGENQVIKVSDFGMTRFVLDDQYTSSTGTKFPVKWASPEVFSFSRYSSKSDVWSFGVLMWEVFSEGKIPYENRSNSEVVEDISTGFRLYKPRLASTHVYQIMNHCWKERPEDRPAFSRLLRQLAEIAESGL
Method: (§1) The degree of inhibition of a panel of kinases is determined using the in vitro HotSpot kinase assay (purified enzymes, ^33P-ATP, an appropriate substrate and 1 μM ATP).

JAK3 = molecular target: T2, JAK3 (Homo sapiens, UniProt P52333); assay: Inhibition of a panel of kinases, in vitro HotSpot kinase assay: JAK3; details: read-out: IC50 JAK3
T2 sequence (P52333 1-1124): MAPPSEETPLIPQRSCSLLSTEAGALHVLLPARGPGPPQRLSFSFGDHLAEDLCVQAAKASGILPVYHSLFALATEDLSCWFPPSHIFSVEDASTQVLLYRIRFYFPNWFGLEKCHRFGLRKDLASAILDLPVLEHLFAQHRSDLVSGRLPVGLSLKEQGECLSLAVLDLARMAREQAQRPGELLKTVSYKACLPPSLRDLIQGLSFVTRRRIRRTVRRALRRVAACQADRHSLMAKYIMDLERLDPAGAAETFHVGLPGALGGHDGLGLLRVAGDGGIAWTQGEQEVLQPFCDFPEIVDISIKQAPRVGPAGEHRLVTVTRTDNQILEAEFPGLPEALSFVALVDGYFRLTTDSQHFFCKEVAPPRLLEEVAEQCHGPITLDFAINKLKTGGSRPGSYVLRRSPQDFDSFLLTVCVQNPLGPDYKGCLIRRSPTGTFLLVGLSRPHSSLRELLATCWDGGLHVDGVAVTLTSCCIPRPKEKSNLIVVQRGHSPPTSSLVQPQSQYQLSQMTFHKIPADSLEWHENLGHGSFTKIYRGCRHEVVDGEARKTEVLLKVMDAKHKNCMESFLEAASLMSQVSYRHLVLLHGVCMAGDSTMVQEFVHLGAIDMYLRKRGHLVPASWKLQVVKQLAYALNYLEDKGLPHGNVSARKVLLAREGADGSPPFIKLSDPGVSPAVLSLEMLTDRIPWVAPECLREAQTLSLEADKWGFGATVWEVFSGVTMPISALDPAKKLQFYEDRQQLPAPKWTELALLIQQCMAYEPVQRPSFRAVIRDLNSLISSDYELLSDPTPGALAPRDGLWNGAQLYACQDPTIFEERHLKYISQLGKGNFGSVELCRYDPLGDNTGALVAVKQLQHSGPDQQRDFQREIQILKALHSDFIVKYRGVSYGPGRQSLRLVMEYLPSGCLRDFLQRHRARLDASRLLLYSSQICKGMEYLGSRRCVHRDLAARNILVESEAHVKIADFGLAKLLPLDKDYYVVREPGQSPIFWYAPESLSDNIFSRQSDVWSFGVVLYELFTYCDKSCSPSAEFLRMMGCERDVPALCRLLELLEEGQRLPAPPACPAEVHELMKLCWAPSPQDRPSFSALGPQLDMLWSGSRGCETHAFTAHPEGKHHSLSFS

SRC = SRC (Homo sapiens, UniProt P12931); assay: Inhibition of a panel of kinases, in vitro HotSpot kinase assay: SRC
SRC, sequence (P12931 whole entry): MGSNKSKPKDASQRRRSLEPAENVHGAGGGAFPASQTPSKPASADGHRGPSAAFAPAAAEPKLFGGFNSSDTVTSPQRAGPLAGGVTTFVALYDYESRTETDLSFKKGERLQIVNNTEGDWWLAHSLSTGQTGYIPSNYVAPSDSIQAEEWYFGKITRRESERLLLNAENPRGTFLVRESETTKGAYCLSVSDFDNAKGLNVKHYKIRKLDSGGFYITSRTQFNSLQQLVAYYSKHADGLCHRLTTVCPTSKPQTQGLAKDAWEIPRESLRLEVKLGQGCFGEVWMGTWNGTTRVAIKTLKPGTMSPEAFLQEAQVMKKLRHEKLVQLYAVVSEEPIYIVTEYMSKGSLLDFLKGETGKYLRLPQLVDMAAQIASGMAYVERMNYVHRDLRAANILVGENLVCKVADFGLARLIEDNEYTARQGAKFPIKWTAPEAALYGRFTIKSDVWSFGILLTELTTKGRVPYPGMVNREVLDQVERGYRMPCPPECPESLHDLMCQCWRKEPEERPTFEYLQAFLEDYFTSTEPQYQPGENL
Method: as §1

TEC = molecular target: T3, TEC (Homo sapiens, UniProt P42680); assay: Inhibition of a panel of kinases, in vitro HotSpot kinase assay: TEC
T3 sequence (P42680 1-631): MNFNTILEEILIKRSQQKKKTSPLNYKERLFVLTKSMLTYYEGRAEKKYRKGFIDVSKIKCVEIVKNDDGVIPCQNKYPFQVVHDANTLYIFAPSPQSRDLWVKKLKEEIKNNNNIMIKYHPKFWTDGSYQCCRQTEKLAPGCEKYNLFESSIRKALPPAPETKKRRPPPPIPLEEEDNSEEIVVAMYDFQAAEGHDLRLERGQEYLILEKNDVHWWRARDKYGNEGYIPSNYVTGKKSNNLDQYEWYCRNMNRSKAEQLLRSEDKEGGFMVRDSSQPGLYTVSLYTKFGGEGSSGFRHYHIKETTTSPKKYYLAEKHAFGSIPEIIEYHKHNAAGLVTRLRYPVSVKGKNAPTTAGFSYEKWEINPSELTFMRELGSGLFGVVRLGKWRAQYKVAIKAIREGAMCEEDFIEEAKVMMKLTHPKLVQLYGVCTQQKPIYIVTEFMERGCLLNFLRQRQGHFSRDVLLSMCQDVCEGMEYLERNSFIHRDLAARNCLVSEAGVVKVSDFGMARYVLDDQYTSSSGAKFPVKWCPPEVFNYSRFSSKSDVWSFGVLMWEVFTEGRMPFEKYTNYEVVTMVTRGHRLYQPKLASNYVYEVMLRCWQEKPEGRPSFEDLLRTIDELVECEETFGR
Method: as §1

EGFR = EGFR (Homo sapiens, UniProt P00533); assay: Inhibition of a panel of kinases, in vitro HotSpot kinase assay: EGFR
EGFR, sequence (P00533 25-1210): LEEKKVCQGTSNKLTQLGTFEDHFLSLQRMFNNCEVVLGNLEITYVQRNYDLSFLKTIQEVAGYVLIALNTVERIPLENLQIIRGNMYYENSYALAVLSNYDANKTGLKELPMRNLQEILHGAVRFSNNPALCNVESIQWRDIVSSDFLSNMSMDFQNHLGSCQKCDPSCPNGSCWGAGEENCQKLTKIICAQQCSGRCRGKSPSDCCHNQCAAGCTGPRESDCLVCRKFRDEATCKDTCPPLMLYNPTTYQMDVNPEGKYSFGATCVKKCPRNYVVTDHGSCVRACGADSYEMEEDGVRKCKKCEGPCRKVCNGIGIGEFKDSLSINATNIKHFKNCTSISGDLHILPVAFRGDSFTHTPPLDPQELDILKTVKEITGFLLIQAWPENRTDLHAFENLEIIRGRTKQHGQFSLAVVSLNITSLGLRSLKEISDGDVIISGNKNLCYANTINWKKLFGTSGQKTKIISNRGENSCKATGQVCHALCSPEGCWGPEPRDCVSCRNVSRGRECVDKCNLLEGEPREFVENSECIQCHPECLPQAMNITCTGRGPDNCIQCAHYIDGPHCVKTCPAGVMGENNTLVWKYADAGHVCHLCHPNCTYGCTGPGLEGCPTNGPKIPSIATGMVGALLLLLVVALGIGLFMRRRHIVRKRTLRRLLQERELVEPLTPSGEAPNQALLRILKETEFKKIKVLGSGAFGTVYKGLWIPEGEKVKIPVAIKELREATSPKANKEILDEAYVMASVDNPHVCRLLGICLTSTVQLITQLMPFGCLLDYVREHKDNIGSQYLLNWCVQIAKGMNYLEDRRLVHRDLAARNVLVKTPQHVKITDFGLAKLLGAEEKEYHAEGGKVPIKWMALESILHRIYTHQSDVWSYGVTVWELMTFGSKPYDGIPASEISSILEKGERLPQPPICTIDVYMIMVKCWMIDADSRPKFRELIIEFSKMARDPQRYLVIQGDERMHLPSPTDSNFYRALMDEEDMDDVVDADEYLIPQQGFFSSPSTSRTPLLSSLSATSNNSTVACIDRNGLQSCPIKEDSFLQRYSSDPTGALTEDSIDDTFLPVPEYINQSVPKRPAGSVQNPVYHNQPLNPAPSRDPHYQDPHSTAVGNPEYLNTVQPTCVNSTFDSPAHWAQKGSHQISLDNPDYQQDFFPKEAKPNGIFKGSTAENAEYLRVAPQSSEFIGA
Method: as §1

[1] = Table 13, A compounds, 1 μM ATP

LCK, sequence (P06239 whole entry): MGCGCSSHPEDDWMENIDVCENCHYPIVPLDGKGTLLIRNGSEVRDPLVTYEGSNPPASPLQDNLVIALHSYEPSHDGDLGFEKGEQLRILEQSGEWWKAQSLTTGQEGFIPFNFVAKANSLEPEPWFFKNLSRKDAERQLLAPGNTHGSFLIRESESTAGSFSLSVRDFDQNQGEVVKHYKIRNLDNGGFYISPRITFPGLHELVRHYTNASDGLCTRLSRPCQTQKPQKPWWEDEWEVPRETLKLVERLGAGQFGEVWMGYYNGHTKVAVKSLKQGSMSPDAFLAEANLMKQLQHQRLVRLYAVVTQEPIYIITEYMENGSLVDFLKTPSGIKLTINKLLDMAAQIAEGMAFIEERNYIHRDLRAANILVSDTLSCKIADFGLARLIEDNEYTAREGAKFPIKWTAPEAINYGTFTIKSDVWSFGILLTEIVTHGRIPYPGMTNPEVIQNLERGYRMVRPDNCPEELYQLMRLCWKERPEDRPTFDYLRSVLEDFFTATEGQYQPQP

Structure (SMILES) | IC50 (LCK; E compounds, Table 17) [nM] | IC50 (ITK; E compounds, Table 17) [nM] | IC50 (JAK3; E compounds, Table 17) [nM] | IC50 (SRC; E compounds, Table 17) [nM] | IC50 (TEC; E compounds, Table 17) [nM] | IC50 (EGFR; E compounds, Table 17) [nM] | IC50 (LCK; [1]) [nM] | IC50 (ITK; [1]) [nM] | IC50 (JAK3; [1]) [nM] | IC50 (SRC; [1]) [nM] | IC50 (TEC; [1]) [nM] | IC50 (EGFR; [1]) [nM]
C[C@@H]1[C@H](NC(=O)c2ccc(C3CC3)cc2F)CCCN1c1cnc(C(N)=O)c(Nc2nc3c(s2)CN(C)CC3)n1 [Example A-108, 5-[(2R,3R)-3-(4-cyclopropyl-2-fluorobenzamido)-2-methylpiperidin-1-yl]-3-({5-methyl-4H,5H,6H,7H-[1,3]thiazolo[5,4-c]pyridin-2-yl}amino)pyrazine-2-carboxamide] |  |  |  |  |  |  | > 10000 | > 10000 | > 10000 | > 10000 | 100 to 1000 | > 10000
Cc1cc(Nc2nc(N3CCC[C@@H](NC(=O)N4Cc5ccccc5C4=O)C3)cnc2C(N)=O)sn1 [Example A-183, N-[(3R)-1-{5-carbamoyl-6-[(3-methyl-1,2-thiazol-5-yl)amino]pyrazin-2-yl}piperidin-3-yl]-1-oxo-2,3-dihydro-1H-isoindole-2-carboxamide] |  |  |  |  |  |  | 10 to 100 | 10 to 100 | 1000 to 10000 | 10 to 100 | 10 to 100 | 100 to 1000
C[C@@H]1[C@H](NC(=O)c2ccc(C3CC3)cc2F)CCCN1c1cnc(C(N)=O)c(Nc2cnn(C)c2)c1 [Example A-127, 5-[(2R,3R)-3-(4-cyclopropyl-2-fluorobenzamido)-2-methylpiperidin-1-yl]-3-[(1-methyl-1H-pyrazol-4-yl)amino]pyridine-2-carboxamide] |  |  |  |  |  |  | 100 to 1000 | 1000 to 10000 | 1000 to 10000 | 100 to 1000 | 100 to 1000 | 1000 to 10000
CC(C)N1CCN(c2ccc(Nc3nc(N4CCC[C@@H](NC(=O)c5ccc(C6CC6)cc5F)[C@H]4C)cnc3C(N)=O)cc2)CC1 [Example A-149, 5-[(2R,3R)-3-(4-cyclopropyl-2-fluorobenzamido)-2-methylpiperidin-1-yl]-3-({4-[4-(propan-2-yl)piperazin-1-yl]phenyl}amino)pyrazine-2-carboxamide] |  |  |  |  |  |  | 10 to 100 | 10 to 100 | 1000 to 10000 | 10 to 100 | 10 to 100 | 100 to 1000
Cn1cc(Nc2nc(N3C[C@@H](NC(=O)c4ccc(C5CC5)cc4)CC(F)(F)C3)cnc2C(N)=O)cn1 [Example A-187, (S)-5-(5-(4-cyclopropylbenzamido)-3,3-difluoropiperidin-1-yl)-3-(1-methyl-1H-pyrazol-4-ylamino)pyrazine-2-carboxamide] |  |  |  |  |  |  | > 10000 | > 10000 | 1000 to 10000 | > 10000 | 1000 to 10000 | 1000 to 10000
C[C@@H]1[C@H](NC(=O)c2ccc(C(C)(C)O)cc2)CCCN1c1cnc(C(N)=O)c(Nc2ccc(C3(C)CCN(C4CC4)CC3)cc2)n1 [Example E-147, 3-((4-(1-cyclopropyl-4-methylpiperidin-4-yl)phenyl)amino)-5-((2R,3R)-3-(4-(2-hydroxypropan-2-yl)benzamido)-2-methylpiperidin-1-yl)pyrazine-2-carboxamide] | < 10 | 10 to 100 | 100 to 1000 | ≤ 10 | ≤ 10 | 100 to 1000 |  |  |  |  |  | 

Second part, the compound after the results:

IC50 (LCK; E compounds, Table 17) [nM] | IC50 (ITK; E compounds, Table 17) [nM] | IC50 (JAK3; E compounds, Table 17) [nM] | IC50 (SRC; E compounds, Table 17) [nM] | IC50 (TEC; E compounds, Table 17) [nM] | IC50 (EGFR; E compounds, Table 17) [nM] | IC50 (LCK; [1]) [nM] | IC50 (ITK; [1]) [nM] | IC50 (JAK3; [1]) [nM] | IC50 (SRC; [1]) [nM] | IC50 (TEC; [1]) [nM] | IC50 (EGFR; [1]) [nM] | Structure (SMILES)
10 to 100 | 100 to 1000 | 100 to 1000 | 10 to 100 | ≤ 10 | 100 to 1000 |  |  |  |  |  |  | Cc1nc(-c2ccc(C(=O)N[C@@H]3CCCN(c4cnc(C(N)=O)c(Nc5cnn(C)c5)n4)[C@@H]3C)cc2)cs1 [Example E-155, 3-((1-methyl-1H-pyrazol-4-yl)amino)-5-((2R,3R)-2-methyl-3-(4-(2-methylthiazol-4-yl)benzamido)piperidin-1-yl)pyrazine-2-carboxamide]
100 to 1000 | 100 to 1000 | > 10000 | 100 to 1000 | 100 to 1000 | > 10000 |  |  |  |  |  |  | C[C@@H]1[C@H](NC(=O)c2ccc(C3CC3)cc2)CCCN1c1cnc(C(N)=O)c(Nc2cnc(C3CCOCC3)nc2)n1 [Example E-144, 5-((2R,3R)-3-(4-cyclopropylbenzamido)-2-methylpiperidin-1-yl)-3-((2-(tetrahydro-2H-pyran-4-yl)pyrimidin-5-yl)amino)pyrazine-2-carboxamide]
1000 to 10000 | 1000 to 10000 | 1000 to 10000 | 1000 to 10000 | 100 to 1000 | 1000 to 10000 |  |  |  |  |  |  | C[C@@H]1[C@H](NC(=O)c2noc(C(C)(C)C)n2)CCCN1c1cnc(C(N)=O)c(Nc2cnn(C)c2)n1 [Example E-149, 5-(tert-butyl)-N-((2R,3R)-1-(5-carbamoyl-6-((1-methyl-1H-pyrazol-4-yl)amino)pyrazin-2-yl)-2-methylpiperidin-3-yl)-1,2,4-oxadiazole-3-carboxamide]
10 to 100 | 100 to 1000 | 100 to 1000 | 10 to 100 | ≤ 10 | 1000 to 10000 |  |  |  |  |  |  | Cc1cc(C(=O)N[C@@H]2CCCN(c3cnc(C(N)=O)c(Nc4cnn(C)c4)n3)[C@@H]2C)ccc1C(C)(C)O [Example E-152, 5-((2R,3R)-3-(4-(2-hydroxypropan-2-yl)-3-methylbenzamido)-2-methylpiperidin-1-yl)-3-((1-methyl-1H-pyrazol-4-yl)amino)pyrazine-2-carboxamide]
100 to 1000 | 10 to 100 | < 10 | 100 to 1000 | ≤ 10 | ≤ 10 |  |  |  |  |  |  | C=CC(=O)N1CCC[C@@H](Nc2nnc(C(N)=O)c(Nc3ccc(-c4ncco4)cc3)n2)C1 [Example E-40, (R)-3-(1-acryloylpiperidin-3-ylamino)-5-(4-(oxazol-2-yl)phenylamino)-1,2,4-triazine-6-carboxamide]
100 to 1000 | 100 to 1000 | 100 to 1000 | 10 to 100 | ≤ 10 | 100 to 1000 |  |  |  |  |  |  | CCC(O)(CC)c1ccc(C(=O)N[C@@H]2CCCN(c3cnc(C(N)=O)c(Nc4cnn(C)c4)n3)[C@@H]2C)cc1 [Example E-151, 5-((2R,3R)-3-(4-(3-hydroxypentan-3-yl)benzamido)-2-methylpiperidin-1-yl)-3-((1-methyl-1H-pyrazol-4-yl)amino)pyrazine-2-carboxamide]
